In brackets after ≈: the same amount, converted by molar mass.
Legend:
[1] = test system: Pseudomonas aeruginosa (PA01); assay: Bacterial killing assay, tobramycin with or without mucin; assay type: cell-based
Protocol: Tobramycin sequestration was also measured via bacteriological killing assays. In these bacterial killing assay experiments Pseudomonas aeruginosa (PA01), the primary bacteria responsible for infection in CF patients, was incubated in the presence of mucin, DNA, tobramycin, lipid or various mixtures of these four materials. Killing assays were performed in the following manner: PA01 was grown in cation adjusted Mueller-Hinton media to a concentration greater than 5×10^8, sedimented by centrifugation and resuspended in a buffered solution of 5 mM Tris 5 mM PIPES and 100 mM NaCl at pH 7.2. A quantity of […]. of PAO1 were incubated for 3.5 hours in the buffered salt solution with varied concentrations of tobramycin, DNA, mucin, and lipids. The mucin concentrations were either 0 mg/ml (control) or 10 mg/ml which is near the physiologically measured concentrations of mucin. Lipids added to the bacterial solution were added in varying concentrations in order to determine the amount needed to release tobramycin from its strong interaction with mucin and/or DNA. The bacterial solution was serially diluted and plated on MH-agar plates. Plates were incubated overnight and the number of bacterial colonies counted.

Calf thymus (CT) DNA = assay: SAXS of DNA + tobramycin (+ cationic lipid) suspensions; assay type: binding
Excerpt: For our studies of the sequestration of aminoglycoside antibiotics by model CF sputum and subsequent release by the administration of surfactants we used the following materials. The aminoglycoside antibiotic used in our experiments was Tobramycin (Sigma Aldrich), commonly used to treat infections of Pseudomonas aeruginosa in CF patients. […] For the DNA+tobramycin experiments we used Calf thymus (CT) DNA (USB Corp. Cleveland Ohio), purified it using standard techniques, and resuspended it in an aqueous solution of 100 mM NaCl 5 mM Tris and 5 mM PIPES adjusted to pH 7. DNA has a charge of approximately −2/base pair.
Surfactant materials used in the present experiments were a mixture of two lipids DOTAP (1,2-Dioleoyl-3-Trimethylammonium-Propane) and DOPE (1,2-Dioleoyl-sn-Glycero-3-Phosphoethanolamine) (Avanti Polar lipids, Alabaster Al.) in mass ratios of about 70:30 and about 25:75. DOTAP is a cationic lipid (charge of +1) with no curvature, and DOPE is a neutral lipid with negative curvature. Briefly, the lipids were first dissolved in chloroform, then dried under nitrogen and redissolved in an aqueous solution. The aqueous salt solution was then sonicated to form unilamellar lipid vescicles, and filtered through 0.2 micron pores.
Aminoglycoside antibiotic sequestration by negatively charged bio-polymers in respiratory mucous of CF patients was measured via two techniques. The first method was to use x-ray diffraction techniques to discern the structure of suspensions of mixtures of biopolymers and antibiotic. Specific x-ray diffraction studies were done to determine the structure of mixtures of the DNA with tobramycin and the lipid mixture. The isoelectric DNA-lipid-monovalent salt solutions were sealed in 1.5 mm quartz capillaries (Hilgenberg GmbH; Malsfeld, Germany) and mixed thoroughly by centrifugation. The approximate sample volume in the capillary was 30 μl-60 μl. SAXS experiments were performed as described previously. Tobramycin has charge of approximately +5 at physiological pH, whereas DNA is negatively charged, thus when the ratio of net DNA charge is approximately equal to the net tobramycin charge (T/D˜1), the tobramycin condenses the DNA. The resulting structure is a bundle of DNA. The structures observed via x-ray diffraction indicate whether or not the tobramycin is sequestered with the DNA or free in suspension. The present invention uses positively charged lipids to replace the tobramycin in these bundles, thereby increasing the efficacy of the antibiotic. Consequently, our experiments used a fixed DNA concentration of 3 mg/ml (x-ray experiments) and a varied concentration of tobramycin and/or lipid. Concentrations are varied such that the ratio of positive to negative charges is known. Similar x-ray diffraction studies can be conducted wherein mucin, instead of DNA, is the sequestration agent to examine mucin+tobramycin+lipid complexes and kinetics.

F-actin = biological target: T1, F-actin (Oryctolagus cuniculus, UniProt P68135); assay: SAXS of F-actin / hen egg white lysozyme bundles; assay type: binding, rabbit
T1 construct: prepared from a lyophilized powder of rabbit skeletal muscle; purchased Cytoskeleton, Inc. (Denver, Col.); host or cells: rabbit skeletal muscle (tissue-derived)
Protocol: Monomeric G-actin (MW 42,000) was prepared from a lyophilized powder of rabbit skeletal muscle purchased from Cytoskeleton, Inc. (Denver, Col.). The non-polymerizing G-actin solution contained a 5 mM TRIS buffer at pH 8.0, with 0.2 mM CaCl2, 0.5 mM ATP, and 0.2 mM DTT and 0.01% NaN3. G-actin (2 mg/ml) was polymerized into F-actin (linear charge density λA˜−1 e /2.5 Å at pH 7) upon the addition of salt (100 mM KCl). Human plasma gelsolin (Cytoskeleton, Inc., Denver, Col.) was used to control the average F-actin length between 0.1 μm to 10 μm. The filaments were treated with phalloidin (Sigma Aldrich, St. Louis, Mo., MW 789.2) to prevent actin depolymerization and resuspended to a final concentration of ˜26.67 mg/ml using Millipore (Billerica, Mass.) H2O (18.2MΩ). Hen Egg White Lysozyme (MW 14,300, Sigma Aldrich, St. Louis, Mo.) was dissolved in Millipore H2O (18.2MΩ) to a final concentration ˜25 mg/ml. Lysozyme carries a pH dependent charge of +9 or +10 and has dimensions of approximately ˜26Å×26Å×45 Å.
The F-actin—lysozyme isoelectric point is found at a concentration ratio of ˜2.5:1 F-actin:lysozyme. X-ray samples were prepared at various F-actin:lysozyme concentration ratios on either side of the isoelectric point, including 2:1, 2.5:1, 3:1, and 5:1. […]

Compound | tobramycin concentration until which mucin inhibits killing ability ([1]; 10 mg/ml mucin) | MIC ([1]; Pseudomonas aeruginosa, 3.5 hours, 5 mM Tris 5 mM PIPES 100 mM NaCl pH 7.2, read-out: minimal inhibitory concentration (MIC)) [µg/mL] | biological accessibility, fraction of the available dose ([1]; sequestration by anionic polyelectrolytes of CF sputum) | ratio of tobramycin charge to DNA charge (T/D) at which bundled DNA peak appears (Calf thymus (CT) DNA; DNA 3 mg/ml, pH 7) | tobramycin concentration at which bundled DNA peak appears (Calf thymus (CT) DNA; DNA 3 mg/ml, pH 7) [mM] | preference of interaction, DNA versus F-actin (Calf thymus (CT) DNA; F-actin 5 mg/ml + DNA 1 mg/ml + tobramycin) | sequestration of tobramycin by DNA at raised lipid concentration (Calf thymus (CT) DNA; T/D approaching 1, L/D=2) | sequestration of tobramycin by DNA without lipid (Calf thymus (CT) DNA; T/D=0.5 and T/D=0.9, absence of lipids) | sequestration of tobramycin by DNA with cationic lipid (Calf thymus (CT) DNA; lipid concentration greater than or equal to that required for DNA charge neutralization) | NaCl concentration up to which the F-actin-lysozyme close pack bundling peak increases (F-actin) [mM] | salt concentration above which the lysozyme-actin bundling peak disappears (F-actin; NaCl)
NC[C@H]1O[C@H](O[C@H]2[C@H](O)[C@@H](O[C@H]3O[C@H](CO)[C@@H](O)[C@H](N)[C@H]3O)[C@H](N)C[C@@H]2N)[C@H](N)C[C@@H]1O [tobramycin] | 20 × the minimal inhibitory concentration (MIC) | ~5 (≈ 10.7 µM) | 1/20 | ~1 | 1.9 | preferentially interacts with DNA over F-actin | again unsequestered by the DNA | sequestered by DNA | not sequestered |  | 
lysozyme: Hen Egg White Lysozyme (MW 14,300, Sigma Aldrich) |  |  |  |  |  |  |  |  |  | ~150 | above 200 mM
